Laboratory results taken from patent publication US8877214B2, “Pharmaceutical composition for modified release” (Astellas Pharma Inc., priority 2010, dated 2014).

Assays:
[1] = Pharmacokinetics of compound A after conventional formulation (elimination half-life; absorption by deconvolution); conditions: human, in vivo; read-out: elimination half-life (T1/2)
Source text: Taking into consideration the results of the clinical trial described above, the present inventors conducted intensive studies to design the formulation by paying attention to the control of a release rate of the drug from a formulation to the extent that the release is not affected by food intake or the like, rather than the addition of release control.
On the basis of blood concentration profiles (in a fasted state/after the intake of food) after administration of a conventional formulation (immediate release formulation), the absorption rate of the drug in a fed state was calculated by a deconvolution method to predict continuous absorption for about 4 hours.

[2] = Pharmacokinetics (PK) test of immediate release formulation (capsule formulation) in human; type: in vivo; conditions: healthy subjects, immediate release capsules, 0.1 to 340 mg
Experimental: The immediate release formulations (capsule formulations) containing 0.1 mg, 1 mg, 5 mg, 20 mg, and 80 mg of the compound A were used in combinations as needed so that the dose of compound A became 0.1 mg, 1 mg, 3 mg, 10 mg, 30 mg, 100 mg, 160 mg, 240 mg, and 340 mg.

half-life [1]: 18 to 24 h
SMILES: Nc1nc(CC(=O)Nc2ccc(CCNC[C@H](O)c3ccccc3)cc2)cs1 [Compound A, (R)-2-(2-aminothiazol-4-yl)-4′-[2-[(2-hydroxy-2-phenylethyl)amino]ethyl]acetic acid anilide]
relation between Cmax and the increase in heart rate from the base line [2]: positive correlation
